Calls of active or inactive are those of the source. No cut-off for these calls is given here.
Key:
[1] = Cytotoxicity against human L02 cells incubated for 72 hrs by MTT assay; type: toxicity, cell-based
[2] = Antiproliferative activity against human WSU HN-30 cells assessed as inhibition rate at 0.1 uM incubated for 72 hrs by MTT assay relative to control; type: functional; settings: WSU-HN30
SCC-25 [3] = test: Antiproliferative activity against human SCC-25 cells assessed as inhibition rate at 0.1 uM incubated for 72 hrs by MTT assay relative to control; type: functional
SCC-25 [4] = test: Cytotoxicity against human SCC-25 cells incubated for 72 hrs by MTT assay; type: functional, cell-based; settings: SCC-25, 72 h
[5] = Cytotoxicity against human HN-6 cells incubated for 72 hrs by MTT assay; type: functional, cell-based; settings: HN-6, 72 h
[6] = Antiproliferative activity against human L02 cells assessed as inhibition rate at 0.1 uM incubated for 72 hrs by MTT assay relative to control; type: toxicity, cell-based
[7] = Antiproliferative activity against human HN-6 cells assessed as inhibition rate at 0.1 uM incubated for 72 hrs by MTT assay relative to control; type: functional
CAL-27 [8] = test: Cytotoxicity against human CAL-27 cells incubated for 72 hrs by MTT assay; type: functional, cell-based; settings: CAL-27, 72 h
CAL-27 [9] = test: Antiproliferative activity against human CAL-27 cells assessed as inhibition rate at 0.1 uM incubated for 72 hrs by MTT assay relative to control; type: functional
CAL-27 [10] = test: Antiproliferative activity against human CAL-27 cells assessed as inhibition of cell communities at 10 uM treated for 11 days by plate clone formation assay; type: functional, cell-based; settings: time 11.0 day
SCC-9 [11] = test: Cytotoxicity against human SCC-9 cells incubated for 72 hrs by MTT assay; type: functional, cell-based; settings: SCC-9, 72 h
SCC-9 [12] = test: Antiproliferative activity against human SCC-9 cells assessed as inhibition rate at 0.1 uM incubated for 72 hrs by MTT assay relative to control; type: functional
[13] = Cytotoxicity against human […] incubated for 72 hrs by MTT assay; type: functional, cell-based; settings: WSU-HN30, 72 h

SMILES	IC50 at 72 h [1] [nM]	inhibition at 0.1 µM [2] [%]	inhibition at 0.1 µM (SCC-25 [3]) [%]	IC50 (SCC-25 [4]) [nM]	IC50 [5] [nM]	inhibition at 72 h, 0.1 µM [6] [%]	inhibition at 0.1 µM [7] [%]	IC50 (CAL-27 [8]) [nM]	inhibition at 0.1 µM (CAL-27 [9]) [%]	Activity (CAL-27 [10])	IC50 (SCC-9 [11]) [nM]	inhibition at 0.1 µM (SCC-9 [12]) [%]	IC50 [13] [nM]
COc1cc2c(O[C@@H]3O[C@@H]4CO[C@@H](c5ccco5)O[C@H]4[C@H](O)[C@H]3O)c3c(c(-c4ccc5c(c4)OCO5)c2cc1OC)C(=O)OC3	> 10000	45.7	54.6	4.31	8.58	5.23	58.7	5.47	50.9	Active	4.97	52.9	243
COc1cc2c(O[C@@H]3O[C@@H]4CO[C@@H](c5ccsc5)O[C@H]4[C@H](OC(C)=O)[C@H]3OC(C)=O)c3c(c(-c4ccc5c(c4)OCO5)c2cc1OC)C(=O)OC3	> 10000	49.4	47.4	43.3	11.6	9.07	61.1	20.1	48.2		16.1	45.8	92.6

Source: ChEMBL document CHEMBL6153048, “Synthesis and pharmacological evaluation of natural product diphyllin derivatives against head and neck squamous cell carcinoma” (Eur J Med Chem, 2025)
